We go through 9 compounds from patent US7247645B2, “Dihydropyridine derivatives” (Ajinomoto Co., Inc., priority 1999, dated 2007).

Structures are written as SMILES. Where two headings read alike, the source gives them in different places.

The target of one assay is T1, L-type calcium channel (Rattus norvegicus, UniProt P22002).
T1 construct: The slips of thoracic aorta extracted from a Sprague-Dawry rat was used; from tissue; host or cells: rat (Sprague-Dawley) thoracic aorta rings, endothelium removed
In words: Antagonistic activity on L-type calcium channel: relaxation of KCl contraction of rat thoracic aorta samples. Conditions: High K+ (50 mM KCl) contraction. How it is done:
The activity of the dihydropyridine derivatives of the present invention to inhibit L-type calcium channel was determined by the following method in which the relaxation reaction on the KCl contraction of samples of thoracic aorta extracted from rats was employed.
1) Method of preparation of samples of thoracic aorta extracted from rats:
The slips of thoracic aorta extracted from a Sprague-Dawry rat was used. The blood vessels were cut to obtain ring-shaped samples having a width of about 3 mm. The endothelial cells of the blood vessel were mechanically removed. The samples were suspended in a strain gage in Tyrode's solution (158.3 mM of NaCl, 4.0 mM of KCl, 1.05 mM of MgCl2, 0.42 mM of NaH2PO4, 10 mM of NaHCO3, 2 mM of CaCl2 and 5 mM of glucose) in which a gaseous mixture of O2 (95%) and CO2 (5%) was introduced. A static tension of 2 g was applied hereto. The tension of the blood vessel was amplified with transducer and a tension amplifier (EF-601G; Nihon Koden Corporation) and recorded with a multi-pen recorder (Rikadenki Kogyo Co., Ltd.). The experiments were conducted at 37° C.
2) Determination of Relaxation After KCl Contraction:
After the tension had been stabilized, the nutrient solution in the sample tank was replaced with High K^+ Tyrode's solution (112.3 mM of NaCl, 50 mM of KCl, 1.05 mM of MgCl2, 0.42 mM of NaH2PO4, 10 mM of NaHCO3, 2 mM of CaCl2 and 5 mM of glucose) to conduct the contraction reaction. 30 minutes after, the solution in the sample tank was replaced with the normal Tyrode's solution. The solution in the sample tank was again replaced with the High K^+ Tyrode's solution and the contraction reaction was observed. After attaining the maximum contraction reaction, the test compound was cumulatively added at intervals of […] to attain concentrations of 10^−7, 10^−6 and 10^−5M. The rate of the test compound to control the maximum contraction reaction was employed as the index of the inhibition activity on L-type calcium channel.

Assay [1] concerns the target T2, N-type calcium channel (Homo sapiens, UniProt Q00975). In words: Antagonistic activity on N-type calcium channel (fluorescence dye method), IMR-32 cells, in presence of 1 μM Nifedipine. The format is cell-based. As to conditions: 60 mM KCl stimulation, 0.1, 1 or 10 μM test compound, Table 9, read-out: N-type inhibition pIC50 (converted). The protocol:
(§1) The medium used was a Phenol Red-free Eagle minimum essential medium (GIBCO) containing earle's salts supplement, 2 mM of L-glutamine (GIBCO), 1 mM of sodium pyruvate (pH 6.5) (GIBCO), antibiotic/antimicotic mixture (GIBCO) and 10% fetal calf serum (Cell Culture Technologies). 3 ml of 1×10^5/ml IMR-32 cells were spread on a glass dish (Iwaki Glass Co., Ltd.) having a diameter of 35 mm which was treated with poly-D-lysin (SIGMA) and collagen (COLLAGEN VITROGEN 100, Collagen Co.). After the culture for 2 days, 1 mM (final concentration) of dibutyl cAMP and 2.5 μM of bromodeoxyuridine (SIGMA) were added. After the culture for additional 10 to 14 days, the cells were subjected to the activity determination. The medium for IMR-32 cells thus prepared was replaced with 1 ml of Phenol Red-free Eagle minimum essential medium (GIBCO) containing […] 10 μM fura-2/AM (Dojin Kagaku, Co.) and earle's salts supplement, and the incubation was conducted at 25° C. for 1 hour.
(§2) Then the medium was replaced with Phenol Red-free Eagle minimum essential medium (GIBCO) containing earle's salts supplement, from which fura-2/AM had been removed. After the incubation at 37° C. for 1 hour, the medium was replaced with a recording medium (20 mM of HEPES-KOH, 115 mM of NaCl, 5.4 mM of KCl, 0.8 mM of MgCl2, 1.8 mM of CaCl2 and 13.8 mM of D-glucose). Antagonistic activity on N-type calcium channel was determined and analyzed by using a fluorescence microscope (Nikon Corporation) and an image analysis device ARGUS 50 (Hamamatsu Photonics). In particular, a recording medium (20 mM of HEPES-KOH, 115 mM of NaCl, 5.4 mM of KCl, 0.8 mM of MgCl2, 1.8 mM of CaCl2 and 13.8 mM of D-glucose) containing 1 μM of Nifedipine was given to the cells by reflux by a Y-tube method. Then a stimulating agent containing 60 mM of potassium chloride was rapidly given by the Y-tube method. Thereafter stimulating agents containing 60 mM of potassium chloride and 0.1, 1 or 10 μM of test compound were successively rapidly given by the Y-tube method to determine the antagonistic activity on the channel. Finally, a stimulating agent containing 60 mM of potassium chloride and 1 μM of omega conotoxin GVIA (Peptide institute, inc.) was rapidly given by the Y-tube method to realize a condition of 100% inhibition of N-type calcium channel.

Assay [2] deals with T2, N-type calcium channel. Kind of assay: N-type calcium channel antagonistic activity, changed procedure (calcium concentration change in IMR-32 cells, calculated from inhibition rates). As to conditions: 60 mM KCl stimulation, Table 10, read-out: N-type inhibition pIC50 (converted). The class given is cell-based. How it is done: as §1, §2
The same procedure as that of the above-described tests was repeated except for the following changes: 60 mM of potassium chloride-containing stimulating agent was rapidly given by the Y-tube method while the calcium concentration change in the cells was examined in terms of N-type calcium channel activity. Then Stimulating agents containing 60 mM of potassium chloride and 0.1, 1 or 10 μM of test compound were successively and rapidly given by the Y-tube method. A change in calcium concentration in the cells was determined.

The mark [3] stands for this setting: Table 9, read-out: L-type inhibition IC50.
Where [4] appears, read: Table 10, read-out: L-type inhibition IC50.

T1 sequence (P22002 whole entry): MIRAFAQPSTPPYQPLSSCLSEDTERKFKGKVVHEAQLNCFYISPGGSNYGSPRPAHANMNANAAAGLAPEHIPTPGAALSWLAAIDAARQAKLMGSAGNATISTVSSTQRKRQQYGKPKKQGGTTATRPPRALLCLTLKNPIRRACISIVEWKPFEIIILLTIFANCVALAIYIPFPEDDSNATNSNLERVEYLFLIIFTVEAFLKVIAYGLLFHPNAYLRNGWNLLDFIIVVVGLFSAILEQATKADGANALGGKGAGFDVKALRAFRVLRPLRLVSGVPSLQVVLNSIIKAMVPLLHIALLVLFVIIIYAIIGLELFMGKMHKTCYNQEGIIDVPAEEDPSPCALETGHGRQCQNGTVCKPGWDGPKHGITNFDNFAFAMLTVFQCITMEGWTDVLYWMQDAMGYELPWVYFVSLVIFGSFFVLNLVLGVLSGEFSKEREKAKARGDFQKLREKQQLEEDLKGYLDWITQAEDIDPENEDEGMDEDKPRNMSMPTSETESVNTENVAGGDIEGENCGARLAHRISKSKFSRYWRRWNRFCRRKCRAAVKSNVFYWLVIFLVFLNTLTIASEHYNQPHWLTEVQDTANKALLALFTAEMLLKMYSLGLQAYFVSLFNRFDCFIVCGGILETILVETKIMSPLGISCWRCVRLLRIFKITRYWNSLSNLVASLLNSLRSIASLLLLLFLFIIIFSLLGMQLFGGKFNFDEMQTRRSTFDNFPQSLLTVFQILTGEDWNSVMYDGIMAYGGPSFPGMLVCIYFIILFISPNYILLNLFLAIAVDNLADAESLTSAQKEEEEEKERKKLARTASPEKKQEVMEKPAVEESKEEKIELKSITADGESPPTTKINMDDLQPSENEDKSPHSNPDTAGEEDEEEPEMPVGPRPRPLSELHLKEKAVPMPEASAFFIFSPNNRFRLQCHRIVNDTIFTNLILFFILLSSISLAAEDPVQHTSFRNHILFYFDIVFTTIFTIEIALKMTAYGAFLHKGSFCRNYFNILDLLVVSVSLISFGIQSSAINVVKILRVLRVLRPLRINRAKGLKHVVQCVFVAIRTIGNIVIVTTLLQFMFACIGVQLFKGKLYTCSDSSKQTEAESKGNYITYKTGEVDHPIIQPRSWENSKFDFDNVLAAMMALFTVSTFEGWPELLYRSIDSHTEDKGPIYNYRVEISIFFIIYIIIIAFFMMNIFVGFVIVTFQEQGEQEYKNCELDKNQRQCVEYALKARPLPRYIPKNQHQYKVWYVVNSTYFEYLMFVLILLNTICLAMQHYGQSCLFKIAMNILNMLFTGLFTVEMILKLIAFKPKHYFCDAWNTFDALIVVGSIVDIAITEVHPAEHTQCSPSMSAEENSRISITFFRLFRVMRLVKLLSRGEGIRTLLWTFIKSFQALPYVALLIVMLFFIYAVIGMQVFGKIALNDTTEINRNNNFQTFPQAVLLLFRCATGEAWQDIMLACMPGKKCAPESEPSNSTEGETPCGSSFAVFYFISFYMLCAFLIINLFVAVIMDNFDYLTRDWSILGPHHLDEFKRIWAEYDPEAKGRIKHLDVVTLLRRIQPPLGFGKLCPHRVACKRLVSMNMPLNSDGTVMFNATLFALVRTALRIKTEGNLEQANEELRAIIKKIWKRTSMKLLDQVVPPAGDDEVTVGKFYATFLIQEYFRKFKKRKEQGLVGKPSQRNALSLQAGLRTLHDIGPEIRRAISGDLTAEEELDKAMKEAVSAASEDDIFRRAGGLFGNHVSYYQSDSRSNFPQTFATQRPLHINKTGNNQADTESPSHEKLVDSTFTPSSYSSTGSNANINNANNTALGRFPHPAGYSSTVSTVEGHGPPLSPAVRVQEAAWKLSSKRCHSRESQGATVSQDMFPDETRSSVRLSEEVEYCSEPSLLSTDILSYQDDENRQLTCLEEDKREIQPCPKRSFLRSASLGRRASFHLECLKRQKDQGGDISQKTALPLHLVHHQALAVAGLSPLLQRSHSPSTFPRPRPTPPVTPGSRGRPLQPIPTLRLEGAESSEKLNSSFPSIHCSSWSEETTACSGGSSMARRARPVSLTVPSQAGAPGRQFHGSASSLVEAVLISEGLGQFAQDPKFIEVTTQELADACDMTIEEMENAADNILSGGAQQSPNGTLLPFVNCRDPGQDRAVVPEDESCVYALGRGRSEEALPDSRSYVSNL
T1 sequence (P54290 25-1091 partner): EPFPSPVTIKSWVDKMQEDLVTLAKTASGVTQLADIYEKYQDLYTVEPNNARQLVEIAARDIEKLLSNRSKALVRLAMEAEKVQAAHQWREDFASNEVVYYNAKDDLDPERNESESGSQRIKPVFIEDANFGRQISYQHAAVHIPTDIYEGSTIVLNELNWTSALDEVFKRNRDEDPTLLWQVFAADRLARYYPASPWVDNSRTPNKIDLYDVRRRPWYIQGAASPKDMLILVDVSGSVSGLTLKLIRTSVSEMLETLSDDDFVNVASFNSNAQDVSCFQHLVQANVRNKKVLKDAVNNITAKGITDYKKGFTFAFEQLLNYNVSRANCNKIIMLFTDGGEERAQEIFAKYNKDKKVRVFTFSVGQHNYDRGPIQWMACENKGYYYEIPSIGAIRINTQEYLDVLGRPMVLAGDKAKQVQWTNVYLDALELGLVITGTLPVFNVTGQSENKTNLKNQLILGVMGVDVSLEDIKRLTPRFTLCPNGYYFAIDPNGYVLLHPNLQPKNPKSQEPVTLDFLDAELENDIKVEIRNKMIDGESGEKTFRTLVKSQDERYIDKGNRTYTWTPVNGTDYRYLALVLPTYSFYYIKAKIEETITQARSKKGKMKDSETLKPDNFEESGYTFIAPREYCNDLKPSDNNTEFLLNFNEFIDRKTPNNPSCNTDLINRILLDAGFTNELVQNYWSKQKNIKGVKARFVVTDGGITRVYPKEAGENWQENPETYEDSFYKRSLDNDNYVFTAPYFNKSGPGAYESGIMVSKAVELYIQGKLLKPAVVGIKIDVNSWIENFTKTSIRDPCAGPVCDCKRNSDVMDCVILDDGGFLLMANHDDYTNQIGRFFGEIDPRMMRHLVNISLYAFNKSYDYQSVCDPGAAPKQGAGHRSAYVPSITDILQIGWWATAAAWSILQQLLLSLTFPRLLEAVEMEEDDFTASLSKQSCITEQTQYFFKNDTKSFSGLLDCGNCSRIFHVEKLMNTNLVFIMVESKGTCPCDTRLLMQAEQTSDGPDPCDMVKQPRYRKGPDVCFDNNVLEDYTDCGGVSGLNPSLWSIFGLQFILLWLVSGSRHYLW
T1 sequence (P54287 whole entry partner): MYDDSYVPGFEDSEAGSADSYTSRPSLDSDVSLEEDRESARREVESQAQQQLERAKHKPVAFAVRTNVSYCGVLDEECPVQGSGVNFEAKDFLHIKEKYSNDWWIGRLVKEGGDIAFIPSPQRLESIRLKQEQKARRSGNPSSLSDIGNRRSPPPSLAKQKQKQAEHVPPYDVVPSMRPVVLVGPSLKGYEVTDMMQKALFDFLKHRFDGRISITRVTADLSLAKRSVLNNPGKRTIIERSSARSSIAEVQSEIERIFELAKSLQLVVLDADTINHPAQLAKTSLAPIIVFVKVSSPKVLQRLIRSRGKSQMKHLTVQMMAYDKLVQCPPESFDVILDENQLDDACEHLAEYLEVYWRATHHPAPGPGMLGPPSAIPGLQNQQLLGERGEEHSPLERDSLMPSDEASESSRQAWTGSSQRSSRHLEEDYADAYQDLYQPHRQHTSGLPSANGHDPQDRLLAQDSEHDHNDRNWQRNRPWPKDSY

Regarding `CC1=C(C(=O)OCCC(c2ccccc2)c2ccccc2)C(c2cccc(Cl)c2)C(C(=O)N2CCN(C(=O)OC(C)(C)C)CC2)=C(C)N1` (stereo not shown) [Example 15, t-butyl 4-(4-(3-chlorophenyl)-5-(3,3-diphenylpropoxycarbonyl)-2,6-dimethyl-1,4-dihydropyridine-3-carbonyl)piperazine-1-carboxylate], the values for the IC50 at L-type calcium channel (setting [3]) and on N-type calcium channel [1] were 20.8 µM and 0.372 µM, respectively.
Turning to `CC1=C(C(=O)O)C(c2cccc(Cl)c2)C(C(=O)OCCC(c2ccccc2)c2ccccc2)=C(COCCc2ccncc2)N1` (stereo not shown) [Example 54, 5-(3,3-diphenylpropyl)4-(3-chlorophenyl)-2-methyl-6-(2-[pyridine-4-yl]ethoxymethyl)-1,4-dihydropyridine-3,5-dicarboxylate], the IC50 is 1.58 µM on L-type calcium channel (setting [4]) and 2 µM on N-type calcium channel [2].
`COCC1=C(C(=O)OCCC(c2ccccc2)c2ccccc2)C(c2cccc(Cl)c2)C(C(=O)O)=C(C)N1` (stereo not shown) [Example 14, 3-(3,3-diphenylpropane-1-yl)4-(3-chlorophenyl)-2-methoxymethyl-6-methyl-1,4-dihydropyridine-3,5-dicarboxylate]: the IC50 was 4.28 µM at L-type calcium channel (setting [3]), 4.27 µM at L-type calcium channel (setting [4]), 1.2 µM at N-type calcium channel [1] and 2 µM on N-type calcium channel [2].
On to `CC1=C(C(=O)O)C(c2cccc(Cl)c2)C(C(=O)OCCC(c2ccccc2)c2ccccc2)=C(C(F)(F)F)N1` (stereo not shown) [Example 57, 5-(3,3-diphenylpropyl)4-(3-chlorophenyl)-2-methyl-6-trifluoromethyl-1,4-dihydropyridine-3,5-dicarboxylate], for which the IC50 at L-type calcium channel (setting [4]) is 1.78 µM; at N-type calcium channel [2] it was 1.58 µM.
Turning to `COC(OC)C1=C(C(=O)OCCC(c2ccccc2)c2ccccc2)C(c2cccc(Cl)c2)C(C(=O)O)=C(C)N1` (stereo not shown) [Example 60, 3-(3,3-diphenylpropyl)4-(3-chlorophenyl)-2-dimethoxymethyl-6-methyl-1,4-dihydropyridine-3,5-dicarboxylate], the IC50 was 3.89 µM at L-type calcium channel (setting [4]) and 1.58 µM on N-type calcium channel [2].
Turning to `CC1=C(C(=O)O)C(c2cccc(Cl)c2)C(C(=O)OCCC(c2ccccc2)c2ccccc2)=C(COCCc2cccnc2)N1` (stereo not shown) [Example 33, 5-(3,3-diphenyl-1-propyl)4-(3-chlorophenyl)-2-methyl-6-(2-(3-pyridine)ethoxy)methyl-1,4-dihydropyridine-3,5-dicarboxylate], the results for the IC50 on L-type calcium channel (setting [4]) and at N-type calcium channel [2] were 1.7 µM and 1.58 µM, respectively.
Regarding `CC1=C(C(=O)O)C(c2cccc(Cl)c2)C(C(=O)OCCC(c2ccccc2)c2ccccc2)=C(COCCN2CCCCC2)N1` (stereo not shown) [Example 12, 5-(3,3-diphenylpropane-1-yl)4-(3-chlorophenyl)-2-methyl-6-(2-piperidine-1-yl-ethoxymethyl)-1,4-dihydropyridine-3,5-dicarboxylate], the IC50 at L-type calcium channel (setting [3]) was 2.69 µM; at N-type calcium channel [1], 1.58 µM; on N-type calcium channel [2], 3.98 µM.
Consider `CC1=C(C(=O)OCCC(c2ccccc2)c2ccccc2)C(c2cccc(Cl)c2)C(C(=O)O)=C(COCCN2CCCCC2)N1` (stereo not shown) [Example 23, 3-(3,3-diphenylpropane-1-yl)4-(3-chlorophenyl)-2-methyl-6-(2-(piperidine-1-yl)ethoxymethyl)-1,4-dihydropyridine-3,5-dicarboxylate], for which the IC50 on L-type calcium channel (setting [3]) is 1.8 µM; at L-type calcium channel (setting [4]), 1.82 µM; on N-type calcium channel [1] it was 1.2 µM; at N-type calcium channel [2], 1.58 µM.
For `CC1=C(C(=O)O)C(c2cccc(Cl)c2)C(C(=O)OCCC(c2ccccc2)c2ccccc2)=C(COCCO)N1` (stereo not shown) [Example 20, 3-(3,3-diphenylpropane-1-yl)4-(3-chlorophenyl)-2-(2-hydroxyethoxymethyl)-6-methyl-1,4-dihydropyridine-3,5-dicarboxylate], in that order: 2.78 µM, 2.88 µM, 1.78 µM and 3.16 µM.
